# pKd: −log10 of the molar value. Numbered stars: 1 amine (or outer) side, 2 acyl side, 3 side chain; on linkers, the order of the positions; unused ones are H or OH. Bridge positions count the residues as written; N and C are the ends. Square brackets hold non-standard residues; d marks the D form. Side chains are listed from the residue outwards. Peptide text beside a SMILES is read from it. * marks the point of attachment. X1 = C[C@@H](O)[C@H](CN([C@@H](CCN)C(=O)[*:2])[*:1])N[*:3]; Octanoyl(6-Me) = CCC(C)CCCCC(=O)*; Dab = NCC[C@H](N)C(=O)O
# How the values were obtained:
# Staphylococcus aureus [1] = test: Antimicrobial activity against Staphylococcus aureus ATCC 29213 assessed as inhibition of visible growth of bacteria incubated for 20 hrs by broth microdilution method; format: functional
# Streptococcus suis [2] = test: microbe, parasite or virus in culture; format: functional; settings: SH0918, time 20 hrs
# Description: Antimicrobial activity against Streptococcus suis SH0918 harboring erythromycin-resistance rRNA methylase B, tetracycline efflux protein O and oxazolidinone phenicol transferable resistance gene assessed as inhibition of visible growth of bacteria incubated for 20 hrs by broth microdilution method
# Streptococcus agalactiae = test: Antimicrobial activity against Streptococcus agalactiae DL03 harboring erythromycin-resistance rRNA methylase B assessed as inhibition of visible growth of bacteria incubated for 20 hrs by broth microdilution method; format: functional
# Klebsiella pneumoniae = test: Antimicrobial activity against Klebsiella pneumoniae 9-1 assessed as inhibition of visible growth of bacteria incubated for 20 hrs by broth microdilution method; format: functional
# Salmonella enteritidis = test: Antimicrobial activity against Salmonella enteritis S1 assessed as inhibition of visible growth of bacteria incubated for 20 hrs by broth microdilution method; format: functional, Salmonella enterica subsp. enterica serovar Enteritidis; settings: Salmonella enterica
# Enterococcus faecalis [3] = test: Antimicrobial activity against Enterococcus faecalis ES01 harboring erythromycin-resistance rRNA methylase B and vanB-type vancomycin-resistance locus assessed as inhibition of visible growth of bacteria incubated for 20 hrs by broth microdilution method; format: functional
# Enterococcus faecium [4] = test: Antimicrobial activity against Enterococcus faecium MC38 harboring erythromycin resistance rRNA methylase B and oxazolidinone-phenicol transferable resistance gene assessed as inhibition of visible growth of bacteria incubated for 20 hrs by broth microdilution method; format: functional
# Enterococcus faecium [5] = test: Antimicrobial activity against Enterococcus faecium QF31 harboring erythromycin resistance rRNA methylase B and chloramphenicol-florfenicol resistance methylase assessed as inhibition of visible growth of bacteria incubated for 20 hrs by broth microdilution method; format: functional
# Enterococcus faecalis [6] = test: Antimicrobial activity against Enterococcus faecalis JH2-2 assessed as inhibition of visible growth of bacteria incubated for 20 hrs by broth microdilution method; format: functional
# Streptococcus pyogenes = test: Antimicrobial activity against Streptococcus pyogenes DL02 harboring erythromycin-resistance rRNA methylase B assessed as inhibition of visible growth of bacteria incubated for 20 hrs by broth microdilution method; format: functional
# Enterococcus faecalis [7] = test: microbe, parasite or virus in culture; format: functional; settings: SF23-1, time 20 hrs
# Description: Antimicrobial activity against Enterococcus faecalis SF23-1 harboring erythromycin-resistance rRNA methylase B, tetracycline efflux protein L and chloramphenicol-florfenicol resistance methylase assessed as inhibition of visible growth of bacteria incubated for 20 hrs by broth microdilution method
# Staphylococcus aureus [8] = test: Antimicrobial activity against Staphylococcus aureus YZSA-21 harboring erythromycin resistance rRNA methylase C assessed as inhibition of visible growth of bacteria incubated for 20 hrs by broth microdilution method; format: functional
# Acinetobacter baumannii [9] = test: Antimicrobial activity against Acinetobacter baumannii 7979 assessed as inhibition of visible growth of bacteria incubated for 20 hrs by broth microdilution method; format: functional
# Pseudomonas aeruginosa [10] = test: Antimicrobial activity against Pseudomonas aeruginosa PA14 assessed as inhibition of visible growth of bacteria incubated for 20 hrs by broth microdilution method; format: functional
# Staphylococcus aureus [11] = test: Antimicrobial activity against Staphylococcus aureus YZSA-24 harboring erythromycin resistance rRNA methylase C and methicillin resistance gene resistance locus assessed as inhibition of visible growth of bacteria incubated for 20 hrs by broth microdilution method; format: functional
# Staphylococcus aureus [12] = test: Antimicrobial activity against Staphylococcus aureus YZSA-15 harboring erythromycin resistance rRNA methylase C and vancomycin resistance locus assessed as inhibition of visible growth of bacteria incubated for 20 hrs by broth microdilution method; format: functional
# Pseudomonas aeruginosa [13] = test: Antimicrobial activity against Pseudomonas aeruginosa PA01 assessed as inhibition of visible growth of bacteria incubated for 20 hrs by broth microdilution method; format: functional
# Acinetobacter baumannii [14] = test: Antimicrobial activity against Acinetobacter baumannii AB11 assessed as inhibition of visible growth of bacteria incubated for 20 hrs by broth microdilution method; format: functional
# Streptococcus suis [15] = test: Antimicrobial activity against Streptococcus suis P1/7 assessed as inhibition of visible growth of bacteria incubated for 20 hrs by broth microdilution method; format: functional
# Enterococcus faecalis [16] = test: Antimicrobial activity against Enterococcus faecalis J2 harboring erythromycin-resistance rRNA methylase B and oxazolidinone phenicol transferable resistance gene assessed as inhibition of visible growth of bacteria incubated for 20 hrs by broth microdilution method; format: functional
# Staphylococcus aureus [17] = test: microbe, parasite or virus in culture; format: functional; settings: M147-2, time 20 hrs
# Description: Antimicrobial activity against Staphylococcus aureus M147-2 harboring erythromycin resistance rRNA methylase B, tetracycline efflux protein L and chloramphenicol-florfenicol resistance methylase assessed as inhibition of visible growth of bacteria incubated for 20 hrs by broth microdilution method
# Staphylococcus aureus [18] = test: microbe, parasite or virus in culture; format: functional; settings: M92-1, time 20 hrs
# Description: Antimicrobial activity against Staphylococcus aureus M92-1 harboring erythromycin resistance rRNA methylase B, tetracycline efflux protein L and oxazolidinone-phenicol transferable resistance gene assessed as inhibition of visible growth of bacteria incubated for 20 hrs by broth microdilution method
# Enterococcus faecium [19] = test: Antimicrobial activity against Enterococcus faecium HFY01 assessed as inhibition of visible growth of bacteria incubated for 20 hrs by broth microdilution method; format: functional
# Escherichia coli = test: Antimicrobial activity against Escherichia coli ATCC 25922 assessed as inhibition of visible growth of bacteria incubated for 20 hrs by broth microdilution method; format: functional
# Signal peptidase I = Signal peptidase I (Escherichia coli K-12, UniProt P00803); test: Binding affinity to recombinant 6His-tagged Escherichia coli LepB (77 to 324 residues) extracted from Escherichia coli BL21 (DE3) cells assessed as dissociation constant by MST analysis
# Signal peptidase I, sequence (P00803 whole entry, the tested form may be a part): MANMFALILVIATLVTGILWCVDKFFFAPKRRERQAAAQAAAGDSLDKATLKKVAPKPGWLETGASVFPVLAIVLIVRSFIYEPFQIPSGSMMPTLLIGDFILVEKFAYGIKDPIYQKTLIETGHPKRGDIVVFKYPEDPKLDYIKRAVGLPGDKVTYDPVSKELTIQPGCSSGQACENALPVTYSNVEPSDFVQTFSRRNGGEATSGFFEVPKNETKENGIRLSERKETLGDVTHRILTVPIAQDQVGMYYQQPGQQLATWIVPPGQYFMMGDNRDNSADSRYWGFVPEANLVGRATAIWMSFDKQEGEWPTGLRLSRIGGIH
SMILES,MIC (Staphylococcus aureus [1]),MIC (Streptococcus suis [2]),MIC (Streptococcus agalactiae),MIC (Klebsiella pneumoniae),MIC (Salmonella enteritidis),MIC (Enterococcus faecalis [3]),MIC (Enterococcus faecium [4]),MIC (Enterococcus faecium [5]),MIC (Enterococcus faecalis [6]),MIC (Streptococcus pyogenes),MIC (Enterococcus faecalis [7]),MIC (Staphylococcus aureus [8]),MIC (Acinetobacter baumannii [9]),MIC (Pseudomonas aeruginosa [10]),MIC (Staphylococcus aureus [11]),MIC (Staphylococcus aureus [12]),MIC (Pseudomonas aeruginosa [13]),MIC (Acinetobacter baumannii [14]),MIC (Streptococcus suis [15]),MIC (Enterococcus faecalis [16]),also measured
CNC(C)[C@@H]1CC[C@@H](N)[C@@H](O[C@H]2[C@H](O)[C@@H](O[C@H]3OC[C@](C)(O)[C@H](NC)[C@H]3O)[C@H](N)C[C@@H]2N)O1.CN[C@@H]1[C@@H](O)[C@@H](O[C@@H]2[C@@H](O)[C@H](O[C@H]3O[C@H](C(C)N)CC[C@H]3N)[C@@H](N)C[C@H]2N)OC[C@]1(C)O.CN[C@@H]1[C@@H](O)[C@@H](O[C@@H]2[C@@H](O)[C@H](O[C@H]3O[C@H](CN)CC[C@H]3N)[C@@H](N)C[C@H]2N)OC[C@]1(C)O (stereo partly specified),1 µg/mL,> 32 µg/mL,16 µg/mL,0.5 µg/mL,0.25 µg/mL,> 32 µg/mL,> 32 µg/mL,> 32 µg/mL,4 µg/mL,1 µg/mL,8 µg/mL,0.5 µg/mL,> 32 µg/mL,< 0.06 µg/mL,0.5 µg/mL,0.5 µg/mL,0.125 µg/mL,< 0.06 µg/mL,4 µg/mL,8 µg/mL,MIC (Staphylococcus aureus [17]): 0.5 µg/mL; MIC (Staphylococcus aureus [18]): > 32 µg/mL; MIC (Enterococcus faecium [19]): < 0.06 µg/mL
CC(C)CCCCC(=O)N[C@@H](CCN)C(=O)N[C@@H](CN[C@@H](CCN)C(=O)N[C@H]1CCNC(=O)[C@H]([C@@H](C)O)NC(=O)[C@H](CCN)NC(=O)[C@H](CCN)NC(=O)[C@H](CC(C)C)NC(=O)[C@@H](CC(C)C)NC(=O)[C@H](CCN)NC1=O)[C@@H](C)O.CCC(C)CCCCC(=O)N[C@@H](CCN)C(=O)N[C@@H](CN[C@@H](CCN)C(=O)N[C@H]1CCNC(=O)[C@H]([C@@H](C)O)NC(=O)[C@H](CCN)NC(=O)[C@H](CCN)NC(=O)[C@H](CC(C)C)NC(=O)[C@@H](CC(C)C)NC(=O)[C@H](CCN)NC1=O)[C@@H](C)O (stereo partly drawn) (H-[X1]([Dab-Octanoyl(6-Me)])[Dab][Dab][dL]L[Dab][Dab]T; lactam 2-C),–,–,–,0.5 µg/mL,0.5 µg/mL,–,–,–,–,–,–,–,< 0.06 µg/mL,< 0.06 µg/mL,–,–,0.125 µg/mL,8 µg/mL,–,–,MIC (Escherichia coli): 1 µg/mL
CC1C/C(=C\c2ccc(-c3cccc(Cl)c3)o2)c2nc3ccccc3c(C(=O)O)c2C1 (racemic),8 µg/mL,–,–,–,–,–,–,16 µg/mL,–,–,> 64 µg/mL,–,–,–,–,–,–,–,32 µg/mL,–,pKd (Signal peptidase I): 4.38
C[C@H]1[C@H](NC(=O)/C(=N\OC(C)(C)C(=O)O)c2csc(N)n2)C(=O)N1S(=O)(=O)O [AZTREONAM],–,–,–,2 µg/mL,2 µg/mL,–,–,–,–,–,–,–,> 32 µg/mL,4 µg/mL,–,–,2 µg/mL,> 32 µg/mL,–,–,MIC (Escherichia coli): 0.25 µg/mL
CO[C@@]1(NC(=O)Cc2cccs2)C(=O)N2C(C(=O)O)=C(COC(N)=O)CS[C@@H]21 [CEFOXITIN],1 µg/mL,8 µg/mL,16 µg/mL,> 32 µg/mL,32 µg/mL,> 32 µg/mL,> 32 µg/mL,> 32 µg/mL,> 32 µg/mL,1 µg/mL,> 32 µg/mL,4 µg/mL,> 32 µg/mL,> 32 µg/mL,32 µg/mL,2 µg/mL,> 32 µg/mL,16 µg/mL,1 µg/mL,> 32 µg/mL,MIC (Escherichia coli): 0.25 µg/mL; MIC (Staphylococcus aureus [17]): 4 µg/mL; MIC (Staphylococcus aureus [18]): 4 µg/mL; MIC (Enterococcus faecium [19]): 8 µg/mL
O=C(O)c1cn(C2CC2)c2cc(N3CCNCC3)c(F)cc2c1=O [CIPROFLOXACIN],1 µg/mL,16 µg/mL,16 µg/mL,–,–,> 32 µg/mL,8 µg/mL,2 µg/mL,0.5 µg/mL,1 µg/mL,16 µg/mL,0.5 µg/mL,–,–,4 µg/mL,0.25 µg/mL,–,–,0.125 µg/mL,0.5 µg/mL,MIC (Enterococcus faecium [19]): 1 µg/mL

# Reference: ChEMBL document CHEMBL6078677, “Discovery and optimization of tetrahydroacridine derivatives as a novel class of antibiotics against multidrug-resistant Gram-positive pathogens by targeting type I signal peptidase and disrupting bacterial membrane” (Eur J Med Chem, 2025)
